Measured values from patent US20100022559A1, “BISOXIMES AS FUNGICIDES” (BAYER CROPSCIENCE AG, priority 2006, published 2010).

Assay: logP determination by HPLC on a reversed-phase column (C 18), EEC Directive 79/831 Annex V.A8
Assay type: physicochemical
Details: [a] acidic range, pH 2.3, 0.1% aqueous phosphoric acid and acetonitrile
Description: The stated logP values were determined in accordance with EEC Directive 79/831 Annex V.A8 by HPLC (high performance liquid chromatography) on a reversed-phase column (C 18). Temperature: 43° C.

logP | Structure (SMILES)
0.51^[a] | C/C(=N\OCCCCON)c1ccc(C)c(C)n1 [XII-17]

Same assay, conditions: method marked [a] in Table 1

logP | Structure (SMILES)
1.71^[a] | CCOc1cc(C)nc(C(C)=NOCC(C)CON=C(C)c2cc(OCC)cc(C)n2)c1 (centres unmarked) [Compound 683]
3.98^[a] | Cc1cccc(C(=NOCC2(CON=C(c3cccc(C)n3)C3CC3)CC(C(C)(C)C)=NO2)C2CC2)n1 (mixture of isomers) [compound 651]

Same assay, conditions: method marked [b] in Table 1

logP | Structure (SMILES)
3.61^[b] | CC(=NOCC1(CON=C(C)c2ccc(C)c(C)n2)CC(c2ccccc2)=NO1)c1ccc(C)c(C)n1 (centres unmarked) [compound 632]
3.76^[b] | CC(=NOCc1ccccc1CON=C(C)c1ccccn1)c1ccccn1 [Compound 725]
2.51^[b] | Cc1nc(/C(N)=N/OC/C=C/CO/N=C(\N)c2nc(C)c3c(n2)CCCC3)nc2c1CCCC2 [compound 721]
5.9^[b] | CCCC(=NOCC1(CON=C(CCC)c2cccc(C)n2)CC(c2ccccc2)=NO1)c1cccc(C)n1 (centres unmarked) [compound 621]
4.92^[b] | CC(=NOCC1(CON=C(C)c2ccc(C)c(C)n2)CCCC1)c1ccc(C)c(C)n1 [Compound 588]
3.19^[b] (isomer A) | C=C(CON=C(C)c1cccc(C)n1)CON=C(c1cccc(C)n1)C1CC1 (single isomer, unassigned) [compound 536]
2.13^[b] (isomer A) | C=C(CON=Cc1cccc(C)n1)CON=Cc1cccc(C)n1 (single isomer, unassigned) [compound 664]
3.56^[b] (isomer A) | CC(=NOCCCCON=C(C)c1sc(C)nc1C)c1cccc(C)n1 (single isomer, unassigned) [compound 540]
3.13^[b] | CC(=NOc1ncnc(ON=C(C)c2cccc(C)n2)c1F)c1cccc(C)n1 [compound 727]
2.11^[b] | CC(=NOCC1(CON=C(C)c2cc(C)cc(C)n2)CC1)c1cc(C)cc(C)n1 [Compound 556]
2.06^[b] | COCc1nc(/C(N)=N/OCc2cccc(CO/N=C(\N)c3nc(COC)c(C)c(COC)n3)c2)nc(COC)c1C [compound 713]
2.34^[b] | CC(=NOc1ncnc(ON=C(C)c2cccc(C)n2)c1C)c1cccc(C)n1 [compound 728]
7.36^[b] | CC(=NOCC(C)CON=C(C)c1cccc(-c2ccccc2)n1)c1cccc(-c2ccccc2)n1 (centres unmarked) [compound 563]
3.11^[b] | CCCC1=NOC(CON=C(C)c2ccc(C)c(C)n2)(CON=C(C)c2ccc(C)c(C)n2)C1 (centres unmarked) [compound 629]

Same assay, conditions: method marked [c] in Table 1

logP | Structure (SMILES)
7.36^[c] | CC(=NOCC1(CON=C(C)c2ccc(C)c(C)n2)CCCC1)c1ccc(C)c(C)n1 [Compound 588]
5.97^[c] | CC(=NOCC1(CON=C(C)c2cc(C)cc(C)n2)CC1)c1cc(C)cc(C)n1 [Compound 556]
3.45^[c] | CC(=NOc1ncnc(ON=C(C)c2cccc(C)n2)c1C)c1cccc(C)n1 [compound 728]
4.96^[c] | CC(=NOCc1cccc(CON=C(C)c2cc(C)cc(C)n2)n1)c1cc(C)cc(C)n1 [compound 742]
7.36^[c] | CC(=NOCC(C)CON=C(C)c1cccc(-c2ccccc2)n1)c1cccc(-c2ccccc2)n1 (centres unmarked) [compound 563]

Same assay, conditions: method marker [a] (footnote not shown); isomer A / isomer B / isomer mixture as noted in the cell

logP | Structure (SMILES)
5.32^[a] (isomer A) | Cc1cccnc1C(Cc1ccccc1)=NOCC(C)CON=C(Cc1ccccc1)c1ncccc1C (single isomer, unassigned) [compound 108]
2.51^[a] (isomer B) | CC(=NOCCCON=C(C)c1ncccc1C)c1ncccc1C (single isomer, unassigned) [compound 84]
3.67^a] | CC(=NOCC(C)CON=C(C)c1ccc(C)cn1)c1ccc(C)cn1 (centres unmarked) [compound 133]
2.22^[a] | CC(=NOCCON=C(C)c1cccc(C)n1)c1cccc(C)n1 (mixture of isomers) [Compound 13]
4.73^[a] | CCCC(=NOCC(C)CON=C(CCC)c1ncccc1C)c1ncccc1C (mixture of isomers) [compound 111]
4.88^[a] | CCC(=NOCC(C)CON=C(CC)c1ccc(C)c(C)n1)c1ccc(C)c(C)n1 (centres unmarked) [Compound 235]
3.58^[a] (isomer A) | CCC(=NOCC(C)CON=C(CC)c1ncccc1C)c1ncccc1C (single isomer, unassigned) [compound 100]

Same assay, conditions: method marker [b]; isomer A / isomer B / isomer mixture as noted in the cell

logP | Structure (SMILES)
3.85^[b] | CC(=NOCCCCCON=C(C)c1cccc(C)n1)c1cccc(C)n1 [Compound 11]
4.83^[b] | Cc1cccc(C(=NOCC(C)CON=C(c2cccc(C)n2)C(F)(F)F)C(F)(F)F)n1 (centres unmarked) [compound 214]
2.70^b] | C=C(CON=C(C)c1cccc(C)n1)CON=C(N)c1nc(C)cs1 [compound 193]
3.08^[b] (isomer A) | C=C(CON=C(C)c1cccc(C)n1)CON=C(C)c1nc(C)cc(OC)n1 (single isomer, unassigned) [Compound 177]
4.10^[b] | CC(=NOC(C)CC(C)ON=C(C)c1cccc(C)n1)c1cccc(C)n1 (centres unmarked) [Compound 248]
7.36^[b] | CC(=NOCCCCCCCCCCON=C(C)c1cccc(C)n1)c1cccc(C)n1 [compound 74]
3.19^[b] | C=C(CO/N=C(\N)c1csc(C)n1)CO/N=C(\N)c1csc(C)n1 [Compound 27]
4.40^[b] (isomer A) | C=C(CON=C(C)c1cccc(C)n1)CON=C(C)c1ncccc1Cl (single isomer, unassigned) [compound 140]
2.7^[b] | C=C(CON=C(N)c1cc(C)cc(C)n1)CON=C(N)c1cc(C)cc(C)n1 [compound 127]
5.37^[b] | CC(=NOCCCCCCCON=C(C)c1cccc(C)n1)c1cccc(C)n1 [Compound 217]
2.92^[b] | N/C(=N\OCO/N=C(\N)c1nc(C2CC2)cc(C2CC2)n1)c1nc(C2CC2)cc(C2CC2)n1 [compound 42]
3.23^[b] (isomer A) | C=C(CON=C(C)c1cccc(C)n1)CON=C(CC)c1ncccc1C (single isomer, unassigned) [compound 143]
5.96^[b] | C=C(CON=C(C)c1cccc(Br)n1)CON=C(C)c1cccc(Br)n1 [compound 150]
5.25^[b] | C=C(CON=C(C)c1nc(C)c(C)s1)CON=C(C)c1nc(C)c(C)s1 (single isomer, unassigned) [compound 68]
4.42^[b] (isomer A) | C=C(CON=C(C)c1cccc(C)n1)CON=C(C)c1ncc(C(F)(F)F)cc1Cl (single isomer, unassigned) [compound 157]
4.61^[b] | COc1cccc(C(C)=NOCC(=O)CON=C(C)c2cccc(OC)n2)n1 [compound 247]

Same assay, conditions: reversed-phase HPLC column (C 18); HCO2H; HPLC reversed-phase column (C 18), 43° C.; read-out: logP (HCO2H)

chromatographic logP | Structure (SMILES)
2.2 | C/C(=N\OCC(=O)CO/N=C(\C)c1cccc(C)n1)c1cccc(C)n1 [(2E,9E)-2,10-bis(6-methylpyridin-2-yl)-4,8-dioxa-3,9-diazaundeca-2,9-dien-6-one]

Same assay, conditions: value marked [a]

logP | Structure (SMILES)
4.84^[a] | Cc1cc(C)nc(C(C#N)=NOCC(C)CON=C(C#N)c2cc(C)cc(C)n2)c1 (centres unmarked) [Compound 838]
4.50^[a] | CC(=NOC[Si](C)(C)CON=C(C)c1cccc(C)n1)c1cccc(C)n1 [Compound 292]
3.28^[a] | CC(=NOCCCON=C(C)c1ccc2c(n1)CCC2)c1ccc2c(n1)CCC2 [Compound 302]
2.55^[a] | CC(=NOC1CCC(ON=C(C)c2cc(C)cc(C)n2)C1)c1cc(C)cc(C)n1 (mixture of isomers) [compound 796]
3.29^[a] (isomer B) | C=C(CON=C(c1cccc(C)n1)C1CC1)CON=C(c1cccc(C)n1)C1CC1 (single isomer, unassigned) [Compound 311]

Same assay, conditions: value marked [b]

logP | Structure (SMILES)
2.33^[b] | C=C(CON=C(C)c1cc(C)c(C)nn1)CON=C(C)c1cc(C)c(C)nn1 [compound 284]
2.59^[b] | CC(=NOCC(C)CON=C(C)c1nccc(C)n1)c1cccc(C)n1 (centres unmarked) [compound 506]
4.07^b] | CC(=NOCC1(CON=C(C)c2ccc(C)c(C)n2)CCC1)c1ccc(C)c(C)n1 [Compound 319]
3.15^[b] | CC(=NOCC1(CON=C(C)c2nc(C)ccc2C)CC1)c1nc(C)ccc1C (single isomer, unassigned) [compound 765]
2.41^[b] | CC(=NOCC(C)(C)CON=C(C)c1cccc(C)n1)c1ccc(C)nc1 [Compound 416]
3.37^[b] | COc1cc(C)nc(C(C)=NOCC(C)CON=C(C)c2cccc(C)n2)c1 (centres unmarked) [Compound 501]
5.39^[b] | CCC(C)(CON=C(C)c1ccc(C)c(C)n1)CON=C(C)c1ccc(C)c(C)n1 (centres unmarked) [Compound 793]
5.48^[b] | CCCc1cccc(C(C)=NOCCCCON=C(C)c2cccc(C)n2)n1 [compound 450]
5.54^[b] | CC(=NOCCCCON=C(C)c1cccc(C)n1)c1cccc(C(F)(F)F)c1 [Compound 375]
3.85^[b] | C/C(=N\OCC(C)CO/N=C(\C)c1cncc(C)n1)c1cccc(C)n1 (centres unmarked) [compound 505]
3.02^[b] | CC(=NOCCCCON=C(C)c1cccc(C)n1)c1cnccn1 [compound 512]
4.67^[b] | C=C(CON=C(C)c1cccc(C)n1)CON=C(C)c1cccc(CC)n1 [compound 354]
6.51^[b] | CC(=NOCCCCCCON=C(C)c1cccc(C)n1)c1cccc(C(F)(F)F)c1 [compound 387]
5.65^[b] (isomer B) | C=CCCC(=NOCCCCCCON=C(C)c1cccc(C)n1)c1ncccc1C (single isomer, unassigned) [compound 524]
1.71^[b] | CC(=NOCCCCON=C(C)c1cccc(C)n1)c1ccnc(C)c1 [compound 338]
7.07^[b] | CC(=NOCC(C)(C)CON=C(C)c1cccc(CC(C)C)n1)c1cccc(C)n1 [Compound 367]
2.20^[b] | C=C(CON=C(C)c1cncc(C)c1)CON=C(C)c1cccc(C)n1 [compound 361]
4.15^[b] | CC(=NOCCCCCCON=C(C)c1cnnc(C)n1)c1cccc(C)n1 [compound 344]
4.82^[b] | C=C(CON=C(C)c1cccc(C)n1)CON=C(Cc1ccccc1)c1ncccc1C [compound 349]
3.24^[b] | CC(=NOCC(C)CON=C(C)c1cnnc(C)n1)c1cccc(C)n1 (centres unmarked) [compound 426]
3.85^[b] | CCOC(=O)C(C)(CON=C(C)c1ccc(C)c(C)n1)CON=C(C)c1ccc(C)c(C)n1 (centres unmarked) [compound 854]

Same assay, conditions: value marked [c]

logP | Structure (SMILES)
7.05^[c] | CC(=NOCC1(CON=C(C)c2ccc(C)c(C)n2)CCC1)c1ccc(C)c(C)n1 [Compound 319]
4.95^[c] | CC(=NOCC1(CON=C(C)c2nc(C)ccc2C)CC1)c1nc(C)ccc1C (single isomer, unassigned) [compound 765]
7.27^[c] | CCC(C)(CON=C(C)c1ccc(C)c(C)n1)CON=C(C)c1ccc(C)c(C)n1 (centres unmarked) [Compound 793]
7.05^[c] | CC(=NOC[Si](C)(C)CON=C(C)c1ccc(C)c(C)n1)c1ccc(C)c(C)n1 [Compound 870]
5.82^[c] | CCOC(=O)C(C)(CON=C(C)c1ccc(C)c(C)n1)CON=C(C)c1ccc(C)c(C)n1 (centres unmarked) [compound 854]
